Measurements as given in publication PMC12444472, “BCI inhibits MKP3 by targeting the kinase-binding domain and disrupting ERK2 interaction” (The Journal of Biological Chemistry, 2025).

Legend:
Type in all cases: binding
MKP2^KBD = biological target: T1, MKP2^KBD (Homo sapiens, UniProt Q13115); assay: NMR titration (1H-15N HSQC); conditions: molar ratio to BCI 1:13
T1 construct: MKP2(5–159) (MKP2^KBD); made in house; host or cells: Escherichia coli BL21(DE3)
T1 sequence (Q13115 5-159): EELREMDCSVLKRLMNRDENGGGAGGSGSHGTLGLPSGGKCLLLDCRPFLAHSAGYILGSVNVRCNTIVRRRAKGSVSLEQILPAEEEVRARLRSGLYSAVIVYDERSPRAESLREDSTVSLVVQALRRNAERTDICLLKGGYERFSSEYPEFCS
Description: (§1) NMR data were collected at 298 K on a Bruker AVANCE NEO 800 MHz spectrometer (Bruker BioSpin) equipped with a ^1H&^19F/^13C/^15N TCI cryogenic probe. Backbone resonances of MKP3^1–154 were assigned using 2D/3D experiments, including 2D ^1H–^15N HSQC and 3D ^1H/^13C/^15N CBCA(CO)NH, HNCACB, HNCO, and HN(CA)CO, performed with uniformly ^13C/^15N labeled protein at a final concentration of 0.39 mM in buffer containing 20 mM imidazole (pH 6.0), 100 mM NaCl, 5 mM DTT, 0.5 mM EDTA, and 5% (v/v) D2O. The buffer used for backbone resonance assignment was similar to that used for the previously reported NMR structure ([15]). NMR titration experiments were conducted using ^15N-labeled MKP3^1–154, MKP3^14–152, MKP3^204–350, MKP1^1–141, MKP2^5–159, MKPX^1–140, MKP4^1–143, and MKP5^139–287. 2D ^1H–^15N HSQC spectra of ^15N-labeled MKPs^KBD (0.1 mM) were acquired in the absence and presence of BCI (50 mM stock in DMSO-d6) in buffer containing 50 mM KH2PO4–K2HPO4 (pH 7.2), 100 mM KCl, 1 mM Tris(2-carboxyethyl)phosphine hydrochloride, 1 mM EDTA, and 5% (v/v) D2O. Control experiments, in which only the corresponding volume of DMSO-d6 was added to ^15N-labeled proteins, were performed to exclude possible effects of DMSO on the interactions. For ^15N T1 measurements, the relaxation delay times were set to 20 (×2), 100, 200 (×2), 300, 400, 600 (×2), 800, 1200, and 1600 ms. For ^15N T2 measurements, the delay times were 7.84, 15.68 (×2), 23.52, 31.36 (×2), 39.2, 47.04 (×2), 54.88, 62.72, 78.4, 94.08, and 109.76 ms. The relaxation rates R1 (1/T1) and R2 (1/T2) for each residue were determined by fitting the peak intensities from spectra acquired at the various delay times to a single-exponential decay function: I/I0 = exp(-R1,2·t), where I0 is the intensity at t = 0, and I is the intensity at a delay time t. Repeated measurements were used to estimate the uncertainties of the R1 and R2 values via Monte Carlo analysis. Heteronuclear steady-state ^1H–^15N NOE experiments were acquired in an interleaved mode, with 5 s of ^1H saturation for NOE build-up and 5 s of relaxation delay for the reference spectra. Repeated experiments were performed to estimate uncertainties, and the propagated error for each NOE value was calculated using the following equation: σNOE = NOE × ((σsat/Isat)^2+(σunsat/Iunsat)^2)^1/2, where σsat and σunsat are the SDs of the saturated and unsaturated spectra, respectively, and Isat and Iunsat are the corresponding signal intensities. NMR data were processed using TopSpin 4.1.1 (Bruker BioSpin) or NMRPipe ([54]) and analyzed with POKY ([55]).

MKP5^KBD = biological target: T2, MKP5^KBD (Homo sapiens, UniProt Q9Y6W6); assay: NMR titration (1H-15N HSQC); conditions: molar ratio 1:5
T2 construct: MKP5(139–287) (MKP5^KBD); made in house; host or cells: Escherichia coli BL21(DE3)
T2 sequence (Q9Y6W6 139-287): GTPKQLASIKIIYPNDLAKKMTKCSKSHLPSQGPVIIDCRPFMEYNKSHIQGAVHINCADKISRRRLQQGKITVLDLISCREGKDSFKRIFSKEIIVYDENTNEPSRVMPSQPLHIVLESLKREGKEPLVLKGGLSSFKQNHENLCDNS
Description: as §1

MKP3 R83G = biological target: T3, MKP3 R83G (Homo sapiens, UniProt Q16828, R83G); assay: MST affinity of MKP3 mutant; conditions: full-length mutant
T3 construct: MKP3(1–381) (MKP3^FL); made in house; host or cells: Escherichia coli BL21(DE3)
T3 sequence (Q16828 1-381 R83G): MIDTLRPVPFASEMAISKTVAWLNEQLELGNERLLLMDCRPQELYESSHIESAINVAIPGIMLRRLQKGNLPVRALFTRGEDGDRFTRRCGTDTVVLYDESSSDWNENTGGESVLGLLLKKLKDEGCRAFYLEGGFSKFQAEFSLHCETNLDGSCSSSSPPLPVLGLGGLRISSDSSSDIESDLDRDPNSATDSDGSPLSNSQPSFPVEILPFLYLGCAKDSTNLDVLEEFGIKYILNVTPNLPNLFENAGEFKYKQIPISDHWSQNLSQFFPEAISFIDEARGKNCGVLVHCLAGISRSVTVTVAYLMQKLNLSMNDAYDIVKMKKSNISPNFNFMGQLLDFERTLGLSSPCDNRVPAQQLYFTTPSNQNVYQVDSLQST
Description: MST measurements were performed using fluorescently labeled proteins and the inhibitor BCI (CAS: 1245792-51-1; TargetMol) on a Monolith instrument (NanoTemper Technologies). The RED–Tris–NTA second-generation dye was dissolved in MST buffer (20 mM Hepes, pH 7.4, 200 mM NaCl, and 0.05% Tween-20) to prepare a 5 μM stock solution. Fluorescent labeling of MKP proteins followed the standard protocol of the MO-L018 RED–Tris–NTA protein labeling kit, leveraging the His-tag–dye interaction.
The BCI compound was prepared as a 600 to 750 μM stock solution in MST buffer with 10% DMSO to enhance solubility, followed by a 16-point serial dilution. The diluted BCI solutions were thoroughly mixed with labeled MKP proteins (50 nM) at a 1:1 volume ratio, yielding a final volume of 10 μl. The reaction mixtures were incubated in the dark for 10 min at room temperature before being loaded into standard glass capillaries. Measurements were carried out on the Monolith instrument (100% LED, 40% IR laser power) with a 20 s laser on time. The normalized fluorescence values from triplicate measurements were averaged at each concentration and fitted to a 1:1 binding model using the KD model in MO.Affinity software (v3.0.5, NanoTemper Technologies) to determine the binding affinities between MKP proteins and the BCI inhibitor. The final reported Kd value represents the mean ± SD of Kd values obtained from three independent experiments, each fitted separately.
Figure S3. Affinity measurements of MKP3 mutants with BCI by MST. The binding affinities of full-length MKP3 mutants (E81G, R83G, R85G, R87G, and R89A) to BCI were determined by MST and are presented as mean ± SD (n = 3). Wild-type MKP3 (MKP3^WT) was included as a reference.

- perturbation of NMR spectrum (MKP2^KBD): Peak broadening was detected
- perturbation of NMR spectrum (MKP5^KBD): Significant peak broadening
- affinity for BCI compared with MKP3^WT (MKP3 R83G): significantly reduced affinity
SMILES: O=C1/C(=C/c2ccccc2)C(NC2CCCCC2)c2ccccc21 (stereo not drawn) [BCI, (E)-2-benzylidene-3-(cyclohexylamino)-2,3-dihydro-1H-inden-1-one]
